Laboratory results: patent publication US20260159500A1, “KINESIN KIF18A INHIBITOR AND USE THEREOF” (SHANGHAI APEIRON THERAPEUTICS COMPANY LIMITED, priority 2022, published 2026)
Read-outs that look alike come from different tables or passages of the source.

What was measured:
OVCAR3 cells = test: Cell proliferation activity test in OVCAR3 cells (CyQUANT Direct); format: cell-based; conditions: 3 days incubation, CyQUANT fluorescence detection, read-out: OVCAR-3_IC50_nM
Description: OVCAR3 cells were purchased from Nanjing Cobioer Biosciences Co., Ltd. RPMI-1640 medium, fetal bovine serum, and the CyQUANT Direct Cell Proliferation Assay kit were purchased from Thermo Fisher Scientific, USA; 96-well cell culture plates were sourced from Corning, USA.
Culture OVCAR3 cells with RPMI-1640 medium containing 10% fetal bovine serum and incubate them in a 5% CO2 incubator at 37° C. Only cells in the logarithmic growth phase can be used for the test.
Inoculate OVCAR3 cells into a 96-well cell culture plate at 90 μL per well and incubate overnight in a 5% CO2 incubator at 37° C. Dissolve the compound powder in DMSO to prepare a stock solution of 10 mM. Then perform gradient dilution for the compounds in the microplate to achieve a final concentration of 0-10 μM. Add 10 μL of cell culture medium containing compounds to each well to make the final DMSO content 0.2%. Incubate the cell plates in a 5% CO2 incubator at 37° C. for 3 days. Add 100 μL of CyQUANT detection reagent to each well, react at 37° C. for 60 min, and perform fluorescence detection using the PerkinElmer Envision.

[1] = biological target: T1, Human KIF18A (amino acid sequence 1-417) (Homo sapiens, UniProt Q8NI77); test: Enzymatic activity test (ADP-Glo, microtubule-stimulated KIF18A ATPase); format: biochemical; conditions: 60 μg/mL microtubules, 25 μM ATP, 2.5 nM KIF18A protein, 120 min at ambient temperature, read-out: KIF18A_nM
T1 construct: purchased Viva Biotech (Shanghai) Ltd
T1 sequence (Q8NI77 1-417): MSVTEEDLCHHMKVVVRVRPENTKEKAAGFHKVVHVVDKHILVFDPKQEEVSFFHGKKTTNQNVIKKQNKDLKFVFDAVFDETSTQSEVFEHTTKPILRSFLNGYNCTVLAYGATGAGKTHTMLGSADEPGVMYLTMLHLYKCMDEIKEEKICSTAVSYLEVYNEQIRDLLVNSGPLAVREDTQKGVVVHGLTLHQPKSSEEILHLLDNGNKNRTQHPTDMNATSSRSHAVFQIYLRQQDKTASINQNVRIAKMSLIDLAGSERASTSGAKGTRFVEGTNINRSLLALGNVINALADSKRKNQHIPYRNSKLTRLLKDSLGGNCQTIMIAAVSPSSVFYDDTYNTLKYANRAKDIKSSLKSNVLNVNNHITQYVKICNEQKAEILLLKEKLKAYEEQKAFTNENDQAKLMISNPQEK
Description: Human KIF18A (amino acid sequence 1-417) was purchased from Viva Biotech (Shanghai) Ltd.; the ADP-Glo™ protein kinase kit was acquired from Promega, USA; tubulin was sourced from Cytoskeleton, USA; and the 384-well assay plate and Envision multifunctional microplate reader were obtained from PerkinElmer, USA.
Dissolve the compound powder in DMSO to prepare a stock solution of 10 mM. Then perform gradient dilution for the compounds in the microplate to achieve a final concentration of 0-10 μM. Then, add 2.5 μL each of tubulin, compound, ATP, and KIF18A protein to the microplate in sequence for reaction at ambient temperature for 120 min. The final concentrations in the enzyme reaction are 60 μg/mL for microtubules, 25 μM for ATP, and 2.5 nM for KIF18A protein. After the enzyme reaction, add 10 μL of ADP-GLO reaction reagent to each well and incubate at ambient temperature for 30 min. After that, add 20 μL of detection reagent to each well and incubate at ambient temperature for 30 min in the dark. Finally, perform chemiluminescence detection using the PerkinElmer Envision.

HT29 cells = test: CyQuant cell proliferation activity test in HT29 cells; format: cell-based; conditions: Homo sapiens, HT-29, 72 h, 2000 cells per well, 3 days incubation, IC50 by XLFIT, read-out: HT29_IC50_nM
Description: HT29 cells were purchased from Nanjing Cobioer Biosciences Co., Ltd.; RPMI-1640 medium, fetal bovine serum, Trypsin-EDTA (0.25%), 96-well plates, and CyQuant reagents were purchased from ThermoFisher (USA); DMSO was purchased from SIGMA (USA).
Culture HT29 cells with RPMI-1640 containing 10% fetal bovine serum under the condition of 37° C. and 5% CO2. Only cells in the logarithmic growth phase can be used for the test.
Use the CyQuant reagent to detect the proliferation inhibitory activity of compounds on HT29 cells. Adjust the cell density and inoculate 100 μL per well into the 96-well plate (HT29 at 2000 cells per well), then incubate overnight under the condition of 37° C. and 5% CO2. Add compounds of various target concentrations (initial concentration of 3000 nM, 3-fold dilution, 9 concentration gradients), and make the DMSO content 0.2%. Incubate the cell plates at 37° C. and 5% CO2 for 3 days. Incubate with CyQuant reagent for 1 h, read the plate by Envision, and calculate IC50 using XLFIT.

Compound | IC50 (OVCAR3 cells; Homo sapiens, OVCAR-3, 72 h) [nM] | IC50 [1] [nM] | IC50 (HT29 cells) [nM] | IC50 (OVCAR3 cells) [nM]
O=C(Nc1nc(N2CCC(F)(F)CC2)nc2c1CCC2)c1ccc(NS(=O)(=O)CCO)cc1N1CCC2(CC1)CC2 [Example 1] | 1030 | 190 | – | –
O=C(Nc1nc(N2CCC(F)(F)CC2)nc2c1COC2)c1ccc(NS(=O)(=O)CCO)cc1N1CCC2(CC1)CC2 [Example 2, N-(2-(4,4-difluoropiperidin-1-yl)-5,7-dihydrofuro[3,4-d]pyrimidin-4-yl)-4-((2-hydroxyethyl)sulfonamide)-2-(6-azaspiro[2.5]octan-6-yl)benzamide] | 899 | 251 | – | –
O=C(Nc1nc2c(c(N3CCC(F)(F)CC3)n1)CCC2)c1ccc(NS(=O)(=O)CCO)cc1N1CCC2(CC1)CC2 [Example 3, N-(4-(4,4-difluoropiperidin-1-yl)-6,7-dihydro-5H-cyclopenta[d]pyrimidin-2-yl)-4-((2-hydroxyethyl)sulfonamide)-2-(6-azaspiro[2.5]oct-6-yl)benzamide] | 566 | 68 | – | –
CC(C)(C)OC(=O)N1Cc2nc(NC(=O)c3ccc(NS(=O)(=O)CCO)cc3N3CCC4(CC3)CC4)nc(N3CCC(F)(F)CC3)c2C1 [Example 6, Tert-butyl 4-(4,4-difluoropiperidin-1-yl)-2-(4-(2-hydroxyethylsulfonamido)-2-(6-azaspiro[2.5]octan-6-yl)benzoylamino)-5H-pyrrolo[3,4-d]pyrimidine-6 (7H)-carboxylate] | 1480 | 241 | – | –
O=C(Nc1cc2nccn2c(N2CCC(F)(F)CC2)n1)c1ccc(NS(=O)(=O)CCO)cc1N1CCC2(CC1)CC2 [Example 21, N-(5-(4,4-difluoropiperidin-1-yl)imidazolo[1,2-c]pyrimidin-7-yl)-4-((2-hydroxyethyl)sulfonamide)-2-(6-azaspiro[2.5]octan-6-yl)benzamide] | 358 | – | – | –
O=C(Nc1cc2ncccc2c(N2CCC(F)(F)CC2)n1)c1ccc(NS(=O)(=O)CCO)cc1N1CCC2(CC1)CC2 [Example 57] | – | 77 | – | –
O=C(Nc1cc(N2CCC(F)(F)CC2)c2nccnc2c1)c1ccc(NS(=O)(=O)CCO)cc1N1CCC2(CC1)CC2 [Example 83, N-(8-(4,4-difluoropiperidin-1-yl)quinoxalin-6-yl)-4-((2-hydroxyethyl)sulfonamido)-2-(6-azaspiro[2.5]octan-6-yl)benzamide] | 15 | 27 | – | –
CP(C)(=O)c1cnc2c(N3CCC(F)(F)CC3)cc(NC(=O)c3ccc(NS(=O)(=O)CCO)cc3N3CCC4(CC3)CC4)cc2c1 [Example 85, N-(8-(4,4-difluoropiperidin-1-yl)-3-(dimethylphosphoryl)quinolin-6-yl)-4-(2-hydroxyethylsulfonamido)-2-(6-azaspiro[2.5]octan-6-yl)benzamide] | – | > 3000 | – | –
O=C(Nc1cc(N2CCC(F)(F)CC2)c2ncccc2n1)c1ccc(NS(=O)(=O)CCO)cc1N1CCC2(CC1)CC2 [Example 92, N-(4-(4,4-difluoropiperidin-1-yl)-1,5-naphthyridin-2-yl)-4-(2-hydroxyethylsulfonamido)-2-(6-azaspiro[2.5]octan-6-yl)benzamide] | – | 2260 | – | –
O=C(Nc1cc(N2CCC(F)(F)CC2)nc2cccnc12)c1ccc(NS(=O)(=O)CCO)cc1N1CCC2(CC1)CC2 [Example 93, N-(2-(4,4-difluoropiperidin-1-yl)-1,5-naphthyridin-4-yl)-4-(2-hydroxyethylsulfonamido)-2-(6-azaspiro[2.5]octan-6-yl)benzamide] | – | > 3000 | – | –
C[C@@H](CO)S(=O)(=O)Nc1ccc(C(=O)Nc2cc3sc(N)nc3c(N3CCC(F)(F)CC3)c2F)c(N2CCC3(CC2)CC3)c1 [Example 95, N-[2-amino-4-(4,4-difluoropiperidin-1-yl)-5-fluoro-1,3-benzothiazol-6-yl]-2-{6-azaspiro[2.5]octan-6-yl}-4-[(2S)-1-hydroxypropane-2-sulfonamido]benzamide] | 4.7 | 242 | – | –

Other lines, results leading:

IC50 (OVCAR3 cells; Homo sapiens, OVCAR-3, 72 h) [nM] | IC50 [1] [nM] | IC50 (HT29 cells) [nM] | IC50 (OVCAR3 cells) [nM] | Compound
– | 1940 | – | – | O=C(Nc1nc(N2CCC(F)(F)CC2)cc2nccn12)c1ccc(NS(=O)(=O)CCO)cc1N1CCC2(CC1)CC2 [Example 22]
– | 1640 | – | – | O=C(Nc1nc(N2CCC(F)(F)CC2)c2occc2c1Cl)c1ccc(NS(=O)(=O)CCO)cc1N1CCC2(CC1)CC2 [Example 33, N-(4-chloro-7-(4,4-difluoropiperidin-1-yl)furo[2,3-c]pyridin-5-yl)-4-(2-hydroxyethylsulfonamido)-2-(6-azaspiro[2.5]octan-6-yl)benzamide]
– | 131 | 126 | – | Cn1ccc2c(N3CCC(F)(F)CC3)nc(NC(=O)c3ccc(NS(=O)(=O)CCO)cc3N3CCC4(CC3)CC4)cc21 [Example 38]
– | 1490 | – | – | O=C(Nc1cc2cccnc2c(C2CCN(CC(F)(F)F)CC2)n1)c1ccc(NS(=O)(=O)CCO)cc1N1CCC2(CC1)CC2 [Example 50, 4-(2-hydroxyethylsulfonamido)-2-(6-azaspiro[2.5]octan-6-yl)-N-(8-(1-(2,2,2-trifluoroethyl)piperidin-4-yl)-1,7-naphthyridin-6-yl)benzamide]
745 | 848 | – | – | COc1ccc2cc(NC(=O)c3ccc(NS(=O)(=O)CCO)cc3N3CCC4(CC3)CC4)c(F)c(N3CCC(F)(F)CC3)c2n1 [Example 77, N-(8-(4,4-difluoropiperidin-1-yl)-7-fluoro-2-methoxyquinolin-6-yl)-4-((2-hydroxyethyl)sulfonamido)-2-(6-azaspiro[2.5]oct-6-yl)benzamide]
5.9 | 255 | – | – | C[C@H](CO)S(=O)(=O)Nc1ccc(C(=O)Nc2cc3sc(N)nc3c(N3CCC(F)(F)CC3)c2F)c(N2CCC3(CC2)CC3)c1 [Example 94, N-[2-amino-4-(4,4-difluoropiperidin-1-yl)-5-fluoro-1,3-benzothiazol-6-yl]-2-{6-azaspiro[2.5]octan-6-yl}-4-[(2R)-1-hydroxypropane-2-sulfonamido]benzamide]
– | 139 | – | – | CC(CO)S(=O)(=O)Nc1ccc(C(=O)Nc2cc3sc(N)nc3c(N3CCC(F)(F)CC3)c2F)c(C2=CCC3(CC2)CC3)c1 (stereo not drawn) [Example 101, N-(2-amino-4-(4,4-difluoropiperidin-1-yl)-5-fluorobenzo[d]thiazol-6-yl)-4-((2-hydroxy-1-methylethyl)sulfonamido)-2-(spiro[2.5]oct-5-en-6-yl)benzamide]
– | 150 | – | – | CC(CO)S(=O)(=O)Nc1ccc(C(=O)Nc2cc3cccnc3c(N3[C@H](C)COC[C@H]3C)n2)c(N2CCC3(CC2)CC3)c1 (stereo partly drawn) [Example 102, 2-{6-Azaspiro[2.5]octan-6-yl}-N-[8-((3R,5R)-3,5-dimethylmorpholino)-1,7-naphthyridin-6-yl]-4-[1-hydroxypropane-2-sulfonamido]benzamide]
– | 42 | – | > 10000 | N-(5-(4,4-difluoropiperidin-1-yl) imidazo[1,2-c]pyrimidin-7-yl)-6-((2-hydroxyethyl)sulfonamido)-4-(6-azaspiro[2.5]octan-6-yl) nicotinamide [Example 23]
